In patent US10799503B2, “Methods for the treatment of cancer” (IGNYTA, INC., priority 2016, dated 2020):

Tests used:
[1] = Phase I and Phase Ib clinical studies (Example 5, data cut-off Aug. 1, 2017): treatment-related adverse events and disposition; type: in vivo, human
Excerpt: The most common (>10%) treatment related AEs […].

[2] = Phase I and Phase Ib clinical studies (Example 4): treatment-related adverse events and disposition; type: in vivo, human
Method: Phase I and Phase Ib clinical studies were performed in which 92 total subjects were enrolled, 91 of which were treated, and of which 35 in the Phase Ib portion were determined to be molecularly evaluable and were treated.
Table 4 provides a summary of the most common, treatment-related adverse events (AEs) in all patients that were treated (n=91), expressed as a percentage of the 91 patients.

## COc1cc2ncnc(Oc3cccc(NC(=O)Nc4cc(C(C)(C)C(F)(F)F)on4)c3)c2cc1OC [N-[3-[(6,7-dimethoxy-4-quinazolinyl)oxy]phenyl]-N′-[5-(2,2,2-trifluoro-1,1-dimethylethyl)-3-isoxazolyl]-urea]
[1]; Phase 1 (N = 55)
  Number of patients that discontinued due to death: 3 n
[1]; Phase 1b Other (N = 50)
  Number of patients that discontinued due to death: 1 n
[1]; Phase 1b RET+ (N = 47)
  Number of patients that discontinued due to death: 0 n
[1]; Total Subjects (N = 152)
  Number of patients that discontinued due to death: 4 n
[1]; human, in vivo
  Blood Bilirubin Increased ≤G2: 6 (4)
  Blood Bilirubin Increased ≥G3: 1 (1)
  Decreased Appetite ≤G2: 17 (11)
  Decreased Appetite ≥G3: 0 (0)
  Diarrhea ≤G2: 28 (18)
  Diarrhea ≥G3: 6 (4)
  Elevated Alanine Aminotransferase ≤G2: 4 (3)
  Elevated Alanine Aminotransferase ≥G3: 11 (7)
  Elevated Aspartate Aminotransferase ≤G2: 9 (6)
  Elevated Aspartate Aminotransferase ≥G3: 6 (4)
  Fatigue ≤G2: 27 (18)
  Fatigue ≥G3: 5 (3)
  Hypophosphatemia ≤G2: 13 (9)
  Hypophosphatemia ≥G3: 11 (7)
  Muscle Spasms ≤G2: 19 (13)
  Muscle Spasms ≥G3: 0 (0)
  Nausea ≤G2: 21 (14)
  Nausea ≥G3: 0 (0)
  Rash* ≤G2: 37 (24)
  Rash* ≥G3: 15 (10)
  Vomiting ≤G2: 15 (10)
  Vomiting ≥G3: 0 (0)
  number of treatment-related serious adverse events (SAEs): 19
  patients who experienced treatment-related serious adverse events (SAEs): 9%
  resolution of treatment-related serious adverse events: all except 1 resolved by dose modification or discontinuation
  safety profile: manageable safety profile
  severity and reversibility of the majority of treatment-related adverse events: <Grade 2 and were reversible with dose modifications
  toxicities commonly associated with VEGFR inhibition (hypertension, hypothyroidism, proteinuria, neurotoxicity): rarely observed
[2]; 92 enrolled in Phase 1/1b
  Discontinued, primary reason Death, number of subjects: 4 n
  Discontinued, primary reason Death, percent of subjects: (4) %
[2]; human, in vivo
  ALT increase Any Grade, number of patients: 6
  ALT increase Any Grade, percentage of patients: (7) %
  ALT increase Grade ≤ 2, number of patients: 1
  ALT increase Grade ≤ 2, percentage of patients: (1) %
  ALT increase Grade ≥ 3, number of patients: 5
  ALT increase Grade ≥ 3, percentage of patients: (6) %
  AST increase Any Grade, number of patients: 6
  AST increase Any Grade, percentage of patients: (7) %
  AST increase Grade ≤ 2, percentage of patients: (3) %
  AST increase Grade ≥ 3, number of patients: 3
  AST increase Grade ≥ 3, percentage of patients: (3) %
  Anemia Any Grade, number of patients: 6
  Anemia Any Grade, percentage of patients: (7) %
  Anemia Grade ≤ 2, number of patients: 5
  Anemia Grade ≤ 2, percentage of patients: (6) %
  Anemia Grade ≥ 3, number of patients: 1
  Anemia Grade ≥ 3, percentage of patients: (1) %
  Decreased Appetite Any Grade, number of patients: 9
  Decreased Appetite Any Grade, percentage of patients: (10) %
  Decreased Appetite Grade ≤ 2, number of patients: 9
  Decreased Appetite Grade ≤ 2, percentage of patients: (10) %
  Decreased Appetite Grade ≥ 3, number of patients: 0
  Diarrhea Any Grade, number of patients: 18
  Diarrhea Any Grade, percentage of patients: (20) %
  Diarrhea Grade ≤ 2, number of patients: 14
  Diarrhea Grade ≤ 2, percentage of patients: (15) %
  Diarrhea Grade ≥ 3, number of patients: 4
  Diarrhea Grade ≥ 3, percentage of patients: (4) %
  Discontinued, primary reason Adverse Event, number of subjects: 11 n
  Discontinued, primary reason Adverse Event, percent of subjects: (12) %
  Dysgeusia Any Grade, number of patients: 5
  Dysgeusia Any Grade, percentage of patients: (6) %
  Dysgeusia Grade ≤ 2, number of patients: 5
  Dysgeusia Grade ≤ 2, percentage of patients: (6) %
  Dysgeusia Grade ≥ 3, number of patients: 0
  Erythema Any Grade, number of patients: 7
  Erythema Any Grade, percentage of patients: (8) %
  Erythema Grade ≤ 2, number of patients: 7
  Erythema Grade ≤ 2, percentage of patients: (8) %
  Erythema Grade ≥ 3, number of patients: 0
  Fatigue Any Grade, number of patients: 20
  Fatigue Any Grade, percentage of patients: (22) %
  Fatigue Grade ≤ 2, number of patients: 16
  Fatigue Grade ≤ 2, percentage of patients: (18) %
  Fatigue Grade ≥ 3, number of patients: 4
  Fatigue Grade ≥ 3, percentage of patients: (4) %
  Hypokalemia Any Grade, number of patients: 6
  Hypokalemia Any Grade, percentage of patients: (7) %
  Hypokalemia Grade ≤ 2, number of patients: 6
  Hypokalemia Grade ≤ 2, percentage of patients: (7) %
  Hypokalemia Grade ≥ 3, number of patients: 0
  Hypophosphatemia Any Grade, number of patients: 13
  Hypophosphatemia Any Grade, percentage of patients: (14) %
  Hypophosphatemia Grade ≤ 2, number of patients: 7
  Hypophosphatemia Grade ≤ 2, percentage of patients: (8) %
  Hypophosphatemia Grade ≥ 3, number of patients: 6
  Hypophosphatemia Grade ≥ 3, percentage of patients: (7) %
  Muscle Spasms Any Grade, number of patients: 12
  Muscle Spasms Any Grade, percentage of patients: (13) %
  Muscle Spasms Grade ≤ 2, number of patients: 12
  Muscle Spasms Grade ≤ 2, percentage of patients: (13) %
  Muscle Spasms Grade ≥ 3, number of patients: 0
  Nausea Any Grade, number of patients: 16
  Nausea Any Grade, percentage of patients: (18) %
  Nausea Grade ≤ 2, number of patients: 16
  Nausea Grade ≤ 2, percentage of patients: (18) %
  Nausea Grade ≥ 3, number of patients: 0
  Rash* Any Grade, number of patients: 28
  Rash* Any Grade, percentage of patients: (31) %
  Rash* Grade ≤ 2, number of patients: 20
  Rash* Grade ≤ 2, percentage of patients: (22) %
  Rash* Grade ≥ 3, number of patients: 8
  Rash* Grade ≥ 3, percentage of patients: (9) %
  Vomiting Any Grade, number of patients: 13
  Vomiting Any Grade, percentage of patients: (14) %
  Vomiting Grade ≤ 2, number of patients: 13
  Vomiting Grade ≤ 2, percentage of patients: (14) %
  Vomiting Grade ≥ 3, number of patients: 0
